One assay concerns the target T1, PARP-1 (Homo sapiens, UniProt P09874).
T1 construct: purchased Enzo Life Sciences GmbH, Lörrach, Germany
As to the kind of experiment: PARP-1 autoparsylation assay (HTRF). In kind it is biochemical. The note with it: His-tagged Parp-1, autoparsylation HTRF. An outline of the steps:
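His-tagged enzyme auto-modifies itself using biotinylated NAD/NAD; product detected by TR-FRET between cryptate anti-His antibody and Xlent-streptavidin, as emission ratio.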
In general terms: In TR-FRET formats the signal depends on donor and acceptor labels being close together.

The next assay addresses T2, TNKS1 (Homo sapiens, UniProt O95271).
T2 construct: GST-tagged Tnks-1 (1023-1327 aa, prepared in-house); made in house
As to the kind of experiment: TNKS1 activity ELISA (autoparsylation assay). In kind it is biochemical. Particulars: GST-tagged Tnks-1 (1023-1327 aa). An outline of the steps:
(§1)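 GST-tagged TNKS1 or TNKS2 captured on glutathione plates and allowed to auto-PARsylate with biotinylated NAD with or without compound. Biotin-ADP-ribosylated enzyme detected by streptavidin-HRP and luminescence; IC50 relative to inhibitor-free reaction.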
(In general: In an ELISA, binding on a coated surface is turned into a signal by an enzyme label.)

For another assay, the target named is T3, TNKS2 (Homo sapiens, UniProt Q9H2K2).
T3 construct: GST-tagged Tnks-2 (873-1166 aa, prepared in-house); made in house
T3 sequence (Q9H2K2 873-1166): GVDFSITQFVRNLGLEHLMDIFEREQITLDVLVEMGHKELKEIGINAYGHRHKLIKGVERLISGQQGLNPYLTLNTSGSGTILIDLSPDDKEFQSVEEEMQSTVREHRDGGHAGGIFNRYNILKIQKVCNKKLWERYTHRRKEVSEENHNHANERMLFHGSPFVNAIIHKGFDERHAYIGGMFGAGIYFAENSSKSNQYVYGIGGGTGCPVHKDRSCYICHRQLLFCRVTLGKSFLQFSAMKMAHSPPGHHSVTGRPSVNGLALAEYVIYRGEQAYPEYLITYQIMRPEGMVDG
As to the kind of experiment: TNKS2 activity ELISA (autoparsylation assay). In kind it is biochemical. The method in brief: as §1

Another assay has as its system Tankyrases. Particulars: read-out: EC50 [M] TNKS cellular assay; DLD1 cells, 24 hours, Axin2 increase.
[1] abbreviates: GST-tagged Tnks-2 (873-1166 aa), read-out: IC50 [M] TNKS2 ELISA.

Like-named read-outs stand apart in the source and are kept apart here.

T1 sequence (P09874 whole entry): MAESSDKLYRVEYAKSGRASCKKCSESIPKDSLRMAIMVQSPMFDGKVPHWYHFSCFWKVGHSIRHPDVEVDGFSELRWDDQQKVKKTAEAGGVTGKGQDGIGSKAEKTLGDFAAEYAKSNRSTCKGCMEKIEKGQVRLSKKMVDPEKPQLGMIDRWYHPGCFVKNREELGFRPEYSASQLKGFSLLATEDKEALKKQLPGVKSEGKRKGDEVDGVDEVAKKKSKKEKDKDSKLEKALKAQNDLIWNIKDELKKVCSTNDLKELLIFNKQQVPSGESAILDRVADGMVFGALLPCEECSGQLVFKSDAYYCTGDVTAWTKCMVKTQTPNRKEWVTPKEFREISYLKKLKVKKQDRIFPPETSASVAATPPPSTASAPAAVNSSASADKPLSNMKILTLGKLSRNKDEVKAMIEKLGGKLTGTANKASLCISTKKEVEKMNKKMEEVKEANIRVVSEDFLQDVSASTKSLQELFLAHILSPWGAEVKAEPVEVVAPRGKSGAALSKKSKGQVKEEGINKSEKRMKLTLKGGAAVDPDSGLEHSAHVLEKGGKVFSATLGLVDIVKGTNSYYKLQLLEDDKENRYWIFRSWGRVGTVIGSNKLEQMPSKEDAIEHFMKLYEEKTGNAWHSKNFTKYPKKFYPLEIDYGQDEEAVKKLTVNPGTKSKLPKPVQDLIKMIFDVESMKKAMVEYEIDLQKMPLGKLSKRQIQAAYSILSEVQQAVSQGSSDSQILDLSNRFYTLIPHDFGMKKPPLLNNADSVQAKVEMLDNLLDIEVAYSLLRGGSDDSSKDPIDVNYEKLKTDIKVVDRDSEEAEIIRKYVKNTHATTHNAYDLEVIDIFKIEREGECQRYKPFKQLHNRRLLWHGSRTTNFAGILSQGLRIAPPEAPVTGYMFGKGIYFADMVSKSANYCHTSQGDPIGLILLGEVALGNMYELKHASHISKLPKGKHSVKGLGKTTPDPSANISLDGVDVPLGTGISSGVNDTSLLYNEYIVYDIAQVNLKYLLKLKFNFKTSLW
T2 sequence (O95271 1023-1327): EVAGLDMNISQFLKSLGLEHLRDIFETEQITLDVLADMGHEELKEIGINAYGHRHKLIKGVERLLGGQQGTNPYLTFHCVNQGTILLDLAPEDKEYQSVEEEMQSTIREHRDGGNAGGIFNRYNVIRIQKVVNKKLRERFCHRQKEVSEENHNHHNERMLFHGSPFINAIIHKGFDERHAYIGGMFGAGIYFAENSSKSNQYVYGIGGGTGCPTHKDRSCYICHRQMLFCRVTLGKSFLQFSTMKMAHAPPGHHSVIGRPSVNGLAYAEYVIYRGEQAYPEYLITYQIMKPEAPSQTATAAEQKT

Usually IC50 stands for the concentration that gives 50% inhibition. What is called EC50 is the concentration giving half of the maximal effect. `Cn1cc(C(=O)C2CCN(C(=O)CCCc3nc4c(ccn4C)c(=O)[nH]3)CC2)cn1` [Compound C190, 7-Methyl-2-{4-[4-(1-methyl-1H-pyrazole-4-carbonyl)-piperidin-1-yl]-4-oxo-butyl}-3,7-dihydro-pyrrolo[2,3-d]pyrimidin-4-one]: the IC50 against PARP-1 stood at 870 nM; against TNKS1, 0.71 nM; on TNKS2 (setting [1]), 3.2e-10 M. For the same compound, the EC50 in the assay on Tankyrases is 1.9e-07 M.
On to `Cc1ccc2c(=O)[nH]c(CCCC(=O)N3CCC(c4cnc(N)c(-c5ncccn5)c4)CC3)nn12` [Compound C150, 2-[4-(6-Amino-5-pyrimidin-2-yl-3′,4′,5′,6′-tetrahydro-2′H-[3,4′]bipyridinyl-1′-yl)-4-oxo-butyl]-7-methyl-3H-pyrrolo[2,1-f][1,2,4]triazin-4-one], for which the IC50 came to 1300 nM against PARP-1, 0.23 nM at TNKS1 and 2.8e-10 M on TNKS2 (setting [1]). Further, the EC50 with Tankyrases stood at 1.1e-09 M.
In the case of `COc1ccc(C(=O)C2CCN(C(=O)CCCc3cn4c(C)ccc4c(=O)[nH]3)CC2)cn1` [Compound C57, 3-{4-[4-(6-Methoxy-pyridine-3-carbonyl)-piperidin-1-yl]-4-oxo-butyl}-6-methyl-2H-pyrrolo[1,2-a]pyrazin-1-one], the results for the 50% inhibitory concentration (IC50) at PARP-1, on TNKS1 and against TNKS2 were 0.48 nM, 0.19 nM and 1.8e-10 M, respectively. In addition, the EC50 in the assay on Tankyrases turned out to be 7.7e-10 M.
Turning to `CC(C)n1cc(C(=O)C2CCN(C(=O)CCCc3cn4cccc4c(=O)[nH]3)CC2)cn1` [Compound C210, 3-{4-[4-(1-Isopropyl-1H-pyrazole-4-carbonyl)-piperidin-1-yl]-4-oxo-butyl}-2H-pyrrolo[1,2-a]pyrazin-1-one], the IC50 against PARP-1 worked out at 7500 nM; at TNKS1, 0.38 nM; on TNKS2 (setting [1]), 3.2e-10 M. Moreover, the concentration for a half-maximal effect (EC50) with Tankyrases is 3.6e-09 M.
Consider `Cc1csc2c(=O)[nH]c(CCCC(=O)N3CCC(C(=O)c4cnn(C(C)C)c4)CC3)nc12` [Compound C225, 2-{4-[4-(1-Isopropyl-1H-pyrazole-4-carbonyl)-piperidin-1-yl]-4-oxo-butyl}-7-methyl-3H-thieno[3,2-d]pyrimidin-4-one], for which the IC50 at PARP-1 stood at 700 nM; at TNKS1, 0.73 nM; on TNKS2 (setting [1]), 4e-10 M. The EC50 in the assay with Tankyrases was found to be 1.4e-08 M.
With `Cc1cc2c(=O)[nH]c(CCCC(=O)N3CCC(c4nnc(-c5ccccc5)o4)CC3)nn2c1` [Compound C162, 6-Methyl-2-{4-oxo-4-[4-(5-phenyl-[1,3,4]oxadiazol-2-yl)-piperidin-1-yl]-butyl}-3H-pyrrolo[2,1-f][1,2,4]triazin-4-one], the IC50 came to 1400 nM at PARP-1, 20 nM on TNKS1 and 3.7e-08 M at TNKS2 (setting [1]). In addition, in the assay with Tankyrases, the EC50 is 5e-07 M.
For `Cc1csc2c(=O)[nH]c(CCCC(=O)N3CCC(c4nnc(-c5ccccc5)o4)CC3)nc12` [Compound C54, 7-Methyl-2-{4-oxo-4-[4-(5-phenyl-[1,3,4]oxadiazol-2-yl)-piperidin-1-yl]-butyl}-3H-thieno[3,2-d]pyrimidin-4-one], the IC50 at PARP-1 turned out to be 1500 nM; against TNKS1, 4.7 nM; at TNKS2 (setting [1]) it was 1.8e-09 M. The EC50 in the assay with Tankyrases stood at 1.4e-08 M.
`CC(C)(O)c1ccc(C(=O)C2CCN(C(=O)CCCc3nn4cccc4c(=O)[nH]3)CC2)cc1` [Compound C144, 2-(4-{4-[4-(1-Hydroxy-1-methyl-ethyl)-benzoyl]-piperidin-1-yl}-4-oxo-butyl)-3H-pyrrolo[2,1-f][1,2,4]triazin-4-one]: the IC50 at PARP-1 turned out to be 11000 nM; against TNKS1 it was 7.3 nM; at TNKS2 (setting [1]) it was 3.5e-09 M. The EC50 in the assay with Tankyrases was 8.3e-08 M.
Consider `COc1ccc(C(=O)C2CCN(C(=O)CCCc3nc4c(C)csc4c(=O)[nH]3)CC2)cc1C` [Compound C132, 2-{4-[4-(4-Methoxy-3-methyl-benzoyl)-1-piperidyl]-4-oxo-butyl}-7-methyl-3H-thieno[3,2-d]pyrimidin-4-one], for which the IC50 at PARP-1 was 440 nM; against TNKS1, under 0.1 nM; on TNKS2 (setting [1]) it was 1.1e-10 M. Further, the concentration for a half-maximal effect (EC50) with Tankyrases is 7.7e-10 M.
Regarding `Cc1cc2c(=O)[nH]c(CCCC(=O)N3CCC(C(=O)c4cnn(C)c4)CC3)nn2c1` [Compound C168, 6-Methyl-2-{4-[4-(1-methyl-1H-pyrazole-4-carbonyl)-piperidin-1-yl]-4-oxo-butyl}-3H-pyrrolo[2,1-f][1,2,4]triazin-4-one], the results for the IC50 against PARP-1, against TNKS1 and on TNKS2 (setting [1]) were 5800 nM, 1 nM and 3.5e-09 M, respectively. Further, in the assay with Tankyrases, the EC50 is 3.4e-08 M.
Taken in the same sequence, the figures for `Cc1scc2c(=O)[nH]c(CCCC(=O)N3CCC(C(=O)c4cnn(C)c4)CC3)nc12` [Compound C123, 7-Methyl-2-{4-[4-(1-methyl-1H-pyrazole-4-carbonyl)-piperidin-1-yl]-4-oxo-butyl}-3H-thieno[3,4-d]pyrimidin-4-one] were 1200 nM, 0.67 nM, 5.7e-10 M and 3.4e-09 M.
The like results for `COc1ccc(C(=O)C2CCN(C(=O)CCCc3nn4cc(F)cc4c(=O)[nH]3)CC2)cc1` [Compound C39, 6-Fluoro-2-{4-[4-(4-methoxy-benzoyl)-piperidin-1-yl]-4-oxo-butyl}-3H-pyrrolo[2,1-f][1,2,4]triazin-4-one] were, in that order, 2100 nM, 0.18 nM, 3.7e-10 M and 3.1e-09 M.
`Cn1ccc2c(=O)[nH]c(CCCC(=O)N3CCC(C(=O)c4ccc(F)cc4)CC3)nc21` [Compound C186, 2-{4-[4-(4-Fluoro-benzoyl)-piperidin-1-yl]-4-oxo-butyl}-7-methyl-3,7-dihydro-pyrrolo[2,3-d]pyrimidin-4-one]: the IC50 on PARP-1 was found to be 1200 nM; against TNKS1, 0.41 nM; on TNKS2 (setting [1]) it was 1.9e-09 M. Moreover, in the assay on Tankyrases, the EC50 worked out at 1.4e-08 M.
For the compound `O=C(c1ccc(Cl)cc1)C1CCN(C(=O)CCCc2nn3cccc3c(=O)[nH]2)CC1` [Compound C237, 2-{4-[4-(4-Chloro-benzoyl)-piperidin-1-yl]-4-oxo-butyl}-3H-pyrrolo[2,1-f][1,2,4]triazin-4-one], the IC50 at PARP-1 came to 10000 nM; at TNKS1 it was 0.66 nM; at TNKS2 (setting [1]) it was 3e-10 M. Moreover, the concentration for a half-maximal effect (EC50) in the assay on Tankyrases came to 1e-08 M.
For the compound `Cc1scc2c(=O)[nH]c(CCCC(=O)N3CCC(c4nnc(-c5ccccc5)o4)CC3)nc12` [Compound C117, 7-Methyl-2-{4-oxo-4-[4-(5-phenyl-[1,3,4]oxadiazol-2-yl)-piperidin-1-yl]-butyl}-3H-thieno[3,4-d]pyrimidin-4-one], the IC50 on PARP-1 was 820 nM; on TNKS1, 8.2 nM; on TNKS2 (setting [1]) it was 5.7e-09 M. In addition, in the assay with Tankyrases, the EC50 came out at 1.3e-07 M.
With `COc1ccc(C(=O)C2CCN(C(=O)CCCc3nc4c(c(=O)[nH]3)CCCC4)CC2)cc1` [Compound C227, 2-{4-[4-(4-Methoxy-benzoyl)-piperidin-1-yl]-4-oxo-butyl}-5,6,7,8-tetrahydro-3H-quinazolin-4-one], the IC50 against PARP-1 amounted to 410 nM; against TNKS1 it was 0.66 nM; on TNKS2 (setting [1]), 4.2e-10 M. Also, the EC50 in the assay on Tankyrases was determined as 3.7e-09 M.
Taken in the same sequence, the figures for `Cn1ccc2c(=O)[nH]c(CCCC(=O)N3CCC(c4cnc(N)c(C#N)c4)CC3)nc21` [Compound C182, 6-Amino-1′-[4-(7-methyl-4-oxo-4,7-dihydro-3H-pyrrolo[2,3-d]pyrimidin-2-yl)-butyryl]-1′,2′,3′,4′,5′,6′-hexahydro-[3,4′]bipyridinyl-5-carbonitrile] were 1500 nM, 1.3 nM, 6.5e-10 M and 2.4e-07 M.

For the origin of these results see patent publication US9809598B2 (Merck Patent GmbH, priority 2014, dated 2017).
